Source: patent publication US8343961B2, “Substituted heterocyclic compounds” (ArQule, Inc., priority 2009, dated 2013)

Tests used:
RET kinase = RET kinase (Homo sapiens, UniProt P07949); experiment: RET Kinase Activity Assay; format: biochemical; conditions: read-out: Ret, % INH, at 30 uM
Method: (§1) The disclosed compounds were assayed for their ability to inhibit the activity of RET kinase. Nunc Maxwasorb plates were coated with streptavidin by overnight incubation with 100 μL per well of 1 μg/mL Streptavidin in DPBS. Prior to the start of the experiment, the plates were washed with TBST (3×200 μL) and blocked for at least 1 hour by adding 150 μL of 5% BSA/TBST. The plates were washed with TBST (3×200 4/well) and left dry immediately before the capture step.
The test articles and controls (Staurosporine and Sutent) were prepared using the following assay buffer @ 3× desired final concentration (50 mM […], 0.02 mg/mL BSA, 10 mM MgCl2, 0.1 mM Na3VO4, 1 mM EGTA, 75 μM ATP0.01% NP-40, 2 mM DTT in 10% glycerol/water). In a reaction plate, were added rapidly 20 μL test article (or control) and 20 μL RET (0.25 ng/4 final concentration). The plate was incubated for 15 minutes. To the reaction plate was added 20 μL of Pyk-2 (0.25 ng/4 final concentration). The plate was incubated at room temperature for one hour.
From the reaction plate, 50 μL was transferred to the streptavidin coated plate. The capture plate was incubated at room temperature for 30 minutes then washed 6× with TBST. To the capture plate was added 100 μL/well of Cell Signaling anti-phospho tyrosine at a dilution of 1:3000 in 2% BSA/TBST. The plate was incubated for one hour at room temperature then washed 6× with TBST. To the capture plate was added 100 μL/well of Alkaline Phosphatase Tagged Goat anti Mouse Antibody at a dilution of 1:4000 in 2% BSA/TBST. The plate was incubated for one hour at room temperature then washed 6× with TBST. The fluorescent readout was initiated by the addition of 100 μL/well of Attophos reagent (6 mg/10 mL). The reading was done on the Perkin Elmer Envision system.

Tec kinase = biological target: T1, Tec kinase (Homo sapiens, UniProt P42680); experiment: Tec Kinase Activity Assay; format: biochemical; conditions: read-out: Tec % INH, at 30 uM
T1 sequence (P42680 1-631): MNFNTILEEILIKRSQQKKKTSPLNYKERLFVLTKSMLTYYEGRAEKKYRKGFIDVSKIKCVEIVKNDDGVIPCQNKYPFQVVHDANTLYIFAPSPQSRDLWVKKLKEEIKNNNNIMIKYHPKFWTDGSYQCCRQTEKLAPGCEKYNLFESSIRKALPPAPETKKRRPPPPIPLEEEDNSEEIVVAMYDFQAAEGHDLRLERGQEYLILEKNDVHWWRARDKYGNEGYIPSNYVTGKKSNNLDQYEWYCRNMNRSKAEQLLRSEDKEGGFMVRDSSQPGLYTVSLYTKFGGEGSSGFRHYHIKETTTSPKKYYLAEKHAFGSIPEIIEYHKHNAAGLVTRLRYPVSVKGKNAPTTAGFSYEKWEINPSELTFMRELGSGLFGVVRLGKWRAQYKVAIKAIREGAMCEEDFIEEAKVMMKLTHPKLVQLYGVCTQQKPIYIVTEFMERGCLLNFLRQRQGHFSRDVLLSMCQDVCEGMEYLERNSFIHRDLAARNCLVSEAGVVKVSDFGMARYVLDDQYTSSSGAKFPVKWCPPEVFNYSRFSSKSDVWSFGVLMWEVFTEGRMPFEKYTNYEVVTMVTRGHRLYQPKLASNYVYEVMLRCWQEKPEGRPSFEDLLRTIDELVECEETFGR
Method: as §1, with “Tec” for “RET”, “Maxisorb” for “Maxwasorb”, “μL/well)” for “4/well)”
The test articles and controls (Staurosporine and Sutent) were prepared using the following assay buffer @ 3× desired final concentration (50 mM Tris-HCl, 0.02 mg/mL BSA, 10 mM MgCl2, 0.1 mM Na3VO4, 1 mM EGTA, 75 μM ATP0.01% NP-40, 2 mM DTT in 10% glycerol/water). In a reaction plate were added rapidly 20 μL test article (or control) and 20 μL TEC 0.25 ng/4. The plate was incubated for 30 minutes. To the reaction plate was added 20 μL of Pyk-2.5 ng/μL. The plate was incubated at room temperature for two hours. From the reaction plate, 50 μL was transferred to the streptavidin coated plate. The capture plate was incubated at room temperature for 30 minutes then washed 6× with TBST. To the capture plate was added 100 μL/well of Cell Signaling anti-phospho tyrosine at a dilution of 1:3000 in 2% BSA/TBST. The plate was incubated for one hour at room temperature then washed 6× with TBST. To the capture plate was added 100 μL/well of Alkaline Phosphatase Tagged Goat anti Mouse Antibody at a dilution of 1:4000 in 2% BSA/TBST. The plate was incubated for one hour at room temperature then washed 6× with TBST. The fluorescent readout was initiated by the addition of 100 μL/well of Attophos reagent (6 mg/10 mL). The reading was done on the Perkin Elmer Envision system.

RET kinase, sequence (P07949 29-1114): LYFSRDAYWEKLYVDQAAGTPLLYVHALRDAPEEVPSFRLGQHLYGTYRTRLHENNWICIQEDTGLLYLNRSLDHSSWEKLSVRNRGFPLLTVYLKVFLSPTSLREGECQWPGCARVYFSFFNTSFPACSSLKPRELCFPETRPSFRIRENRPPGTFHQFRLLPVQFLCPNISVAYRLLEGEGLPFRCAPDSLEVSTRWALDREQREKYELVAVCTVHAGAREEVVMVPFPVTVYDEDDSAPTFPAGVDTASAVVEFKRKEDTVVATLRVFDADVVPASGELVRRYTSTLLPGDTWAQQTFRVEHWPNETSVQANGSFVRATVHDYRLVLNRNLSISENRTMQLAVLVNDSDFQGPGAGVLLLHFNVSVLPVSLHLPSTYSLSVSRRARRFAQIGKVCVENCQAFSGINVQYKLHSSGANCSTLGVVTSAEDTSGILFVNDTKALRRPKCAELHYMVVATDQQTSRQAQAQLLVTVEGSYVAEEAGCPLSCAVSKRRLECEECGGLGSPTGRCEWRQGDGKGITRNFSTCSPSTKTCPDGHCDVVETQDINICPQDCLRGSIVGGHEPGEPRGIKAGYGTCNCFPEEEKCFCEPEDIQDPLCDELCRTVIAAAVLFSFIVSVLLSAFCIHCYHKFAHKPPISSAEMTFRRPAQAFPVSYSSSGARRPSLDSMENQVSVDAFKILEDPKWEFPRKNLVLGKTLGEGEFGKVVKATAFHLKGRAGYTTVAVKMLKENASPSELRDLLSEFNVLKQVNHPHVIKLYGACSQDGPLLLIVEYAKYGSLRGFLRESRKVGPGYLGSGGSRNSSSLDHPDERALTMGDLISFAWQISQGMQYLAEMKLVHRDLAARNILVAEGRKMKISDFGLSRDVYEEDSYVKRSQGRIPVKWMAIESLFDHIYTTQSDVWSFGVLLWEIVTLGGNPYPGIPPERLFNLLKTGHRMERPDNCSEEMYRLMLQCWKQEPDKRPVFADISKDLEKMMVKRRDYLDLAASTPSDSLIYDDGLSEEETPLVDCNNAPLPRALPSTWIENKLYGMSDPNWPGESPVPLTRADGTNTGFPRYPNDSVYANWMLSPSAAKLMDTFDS

| inhibition at 30 µM (RET kinase) | inhibition at 30 µM (Tec kinase) | SMILES |
| --- | --- | --- |
| < 50% | 50 to 79% | Nc1nc(N2CCN(Cc3ccc(F)cc3)c3ccccc3C2)c2cn[nH]c2n1 [Compound 16, 4-[1-(4-fluorobenzyl)-1,2,3,5-tetrahydro-4H-1,4-benzodiazepin-4-yl]-1H-pyrazolo[3,4-d]pyrimidin-6-amine] |
| 50 to 79% | 50 to 79% | CC(C)(C)c1ccc(CN2CCN(c3nc(N)nc4[nH]ncc34)Cc3ccccc32)cc1 [Compound 30, 4-[1-(4-tert-butylbenzyl)-1,2,3,5-tetrahydro-4H-1,4-benzodiazepin-4-yl]-1H-pyrazolo[3,4-d]pyrimidin-6-amine] |
| < 50% | 50 to 79% | COc1ccc(CN2CCN(c3nc(N)nc4[nH]ncc34)Cc3ccccc32)cc1OC [Compound 28, 4-[1-(3,4-dimethoxybenzyl)-1,2,3,5-tetrahydro-4H-1,4-benzodiazepin-4-yl]-1H-pyrazolo[3,4-d]pyrimidin-6-amine] |
| 50 to 79% | > 79% | Cc1ccc(CCCN2CCN(c3nc(N)nc4[nH]ncc34)Cc3ccccc32)cc1 [Compound 45, 4-{1-[3-(4-methylphenyl)propyl]-1,2,3,5-tetrahydro-4H-1,4-benzodiazepin-4-yl}-1H-pyrazolo[3,4-d]pyrimidin-6-amine] |
| 50 to 79% | < 50% | Nc1nc(N2CCN(CCCc3cccc(F)c3)c3ccccc3C2)c2nc[nH]c2n1 [Compound 39, 6-{1-[3-(3-fluorophenyl)propyl]-1,2,3,5-tetrahydro-4H-1,4-benzodiazepin-4-yl}-9H-purin-2-amine] |
| < 50% | < 50% | COc1cc2c(cc1OC)C(c1cccc(Cl)c1F)N(c1nc(N)nc3[nH]cnc13)CC2 (stereo not drawn) [Compound 49, 6-[1-(3-chloro-2-fluorophenyl)-6,7-dimethoxy-3,4-dihydroisoquinolin-2(1H)-yl]-9H-purin-2-amine] |
| < 50% | < 50% | Nc1nc(N2CCN(Cc3ccc(Cl)c(Cl)c3)c3ccccc3C2)c2nc[nH]c2n1 [Compound 42, 6-[1-(3,4-dichlorobenzyl)-1,2,3,5-tetrahydro-4H-1,4-benzodiazepin-4-yl]-9H-purin-2-amine] |
| < 50% | 50 to 79% | Nc1nc(N2CCN(Cc3ccc(F)cc3F)c3ccccc3C2)c2cn[nH]c2n1 [Compound 38, 4-[1-(2,4-difluorobenzyl)-1,2,3,5-tetrahydro-4H-1,4-benzodiazepin-4-yl]-1H-pyrazolo[3,4-d]pyrimidin-6-amine] |
| < 50% | < 50% | Nc1nc(N2CCN(Cc3ccc(Cl)cc3)c3ccccc3C2)c2cn[nH]c2n1 [Compound 23, 4-[1-(4-chlorobenzyl)-1,2,3,5-tetrahydro-4H-1,4-benzodiazepin-4-yl]-1H-pyrazolo[3,4-d]pyrimidin-6-amine] |
| 50 to 79% | 50 to 79% | Nc1nc(N2CCN(Cc3ccc(F)cc3)c3ccccc3C2)c2nc[nH]c2n1 [Compound 15, 6-[1-(4-fluorobenzyl)-1,2,3,5-tetrahydro-4H-1,4-benzodiazepin-4-yl]-9H-purin-2-amine] |
| < 50% | 50 to 79% | Cc1cccc(CN2CCN(c3nc(N)nc4[nH]ncc34)Cc3ccccc32)c1 [Compound 34, 4-[1-(3-methylbenzyl)-1,2,3,5-tetrahydro-4H-1,4-benzodiazepin-4-yl]-1H-pyrazolo[3,4-d]pyrimidin-6-amine] |
| < 50% | 50 to 79% | Nc1nc(N2CCN(Cc3cccc(C(F)(F)F)c3)c3ccccc3C2)c2nc[nH]c2n1 [Compound 20, 6-{1-[3-(trifluoromethyl)benzyl]-1,2,3,5-tetrahydro-4H-1,4-benzodiazepin-4-yl}-9H-purin-2-amine] |

More lines, now with the values behind:

| SMILES | inhibition at 30 µM (RET kinase) | inhibition at 30 µM (Tec kinase) |
| --- | --- | --- |
| COc1ccccc1CN1CCN(c2nc(N)nc3[nH]cnc23)Cc2ccccc21 [Compound 9, 6-[1-(2-methoxybenzyl)-1,2,3,5-tetrahydro-4H-1,4-benzodiazepin-4-yl]-9H-purin-2-amine] | 50 to 79% | 50 to 79% |
| Cc1ccccc1CN1CCN(c2nc(N)nc3[nH]cnc23)Cc2ccccc21 [Compound 11, 6-[1-(2-methylbenzyl)-1,2,3,5-tetrahydro-4H-1,4-benzodiazepin-4-yl]-9H-purin-2-amine] | 50 to 79% | 50 to 79% |
| Nc1nc(N2CCN(CCCc3cccc(Cl)c3)c3ccccc3C2)c2cn[nH]c2n1 [Compound 8, 4-{1-[3-(3-chlorophenyl)propyl]-1,2,3,5-tetrahydro-4H-1,4-benzodiazepin-4-yl}-1H-pyrazolo[3,4-d]pyrimidin-6-amine] | < 50% | > 79% |
| CC(C)c1ccc(CN2CCN(c3nc(N)nc4[nH]cnc34)Cc3ccccc32)cc1 [Compound 3, 6-[1-(4-isopropylbenzyl)-1,2,3,5-tetrahydro-4H-1,4-benzodiazepin-4-yl]-9H-purin-2-amine] | < 50% | < 50% |
| Nc1nc(N2CCN(Cc3cccc(F)c3)c3ccccc3C2)c2cn[nH]c2n1 [Compound 6, 4-[1-(3-fluorobenzyl)-1,2,3,5-tetrahydro-4H-1,4-benzodiazepin-4-yl]-1H-pyrazolo[3,4-d]pyrimidin-6-amine] | 50 to 79% | 50 to 79% |
| Cc1ccccc1CN1CCN(c2nc(N)nc3[nH]ncc23)Cc2ccccc21 [Compound 12, 4-[1-(2-methylbenzyl)-1,2,3,5-tetrahydro-4H-1,4-benzodiazepin-4-yl]-1H-pyrazolo[3,4-d]pyrimidin-6-amine] | < 50% | 50 to 79% |
| COc1cccc(CN2CCN(c3nc(N)nc4[nH]ncc34)Cc3ccccc32)c1 [Compound 1, 4-[1-(3-methoxybenzyl)-1,2,3,5-tetrahydro-4H-1,4-benzodiazepin-4-yl]-1H-pyrazolo[3,4-d]pyrimidin-6-amine] | 50 to 79% | > 79% |
| CC(C)c1ccc(CN2CCN(c3nc(N)nc4[nH]ncc34)Cc3ccccc32)cc1 [Compound 4, 4-[1-(4-isopropylbenzyl)-1,2,3,5-tetrahydro-4H-1,4-benzodiazepin-4-yl]-1H-pyrazolo[3,4-d]pyrimidin-6-amine] | < 50% | 50 to 79% |
| Nc1nc(N2CCN(Cc3ccccc3Cl)c3ccccc3C2)c2cn[nH]c2n1 [Compound 14, 4-[1-(2-chlorobenzyl)-1,2,3,5-tetrahydro-4H-1,4-benzodiazepin-4-yl]-1H-pyrazolo[3,4-d]pyrimidin-6-amine] | < 50% | 50 to 79% |
